≈ marks a conversion by molar mass, not a printed value. Where two headings read alike, the source gives them in different places.
Experiments:
[1] = target: T1, acetylcholinesterase (AChE) (Electrophorus electricus, UniProt O42275); assay: biochemical; type: biochemical; conditions: mean ± SD, n = 3
T1 construct: purchased Sigma-Aldrich Co. (St. Louis, MO, USA)
Source text: (§1) Methanol (MeOH), ethanol (EtOH), n-hexane (Hx), dichloromethane (DCM), ethyl acetate (EA), n-butanol (BuOH) (Samchun Pure Chemical, Pyeongtaek, Gyeonggi, Korea) and distilled water were used for extraction, fractionation, and open column chromatography. Open column chromatography used silica gel 60 (40–63 μm; Merck, Darmstadt, Germany), Sephadex LH-20 (25–100 μm; Pharmacia, Stockholm, Sweden), MCI CHP 20P (Supelco, St. Louis, MO, USA), and octadecyl-silica (ODS) gel (400–500 mesh; Waters, Milford, MA, USA). Methanol-d4 (CD3OD) and dimethyl sulfoxide-d6 (DMSO-d6) were used for NMR analysis. The molecular weight was determined by ultra-high-performance liquid chromatography (UPLC) and high-resolution mass spectrometry (HRMS) by connecting an electrospray ionization hybrid linear trap-quadruple-Orbitrap MS system (ESI/LTQ-Orbitrap) to an Ultimate 3000 rapid separation liquid chromatography (RSLC) system (Thermo, Darmstadt, Germany). A TECAN Sunrise microplate reader and Infinite F200 pro (Männedorf, Zürich, Switzerland) were used for absorbance and fluorescence, respectively. High performance liquid chromatography (HPLC) was performed using Waters 2695 system pump and Waters 996 Photodiode array detector (Waters, Milford, MA, USA); data was extracted with Empower Pro 2.0 software. The separation column was a Waters Kromasil C18 column (4.6 × 250 mm, 5 μm). HPLC-grade solvents (e.g., acetonitrile and distilled water (H2O)) were purchased from J. T. Baker® (Phillipsburg, PA, USA). HPLC-grade acetic acid was purchased from Fisher Chemical (Janssen Pharmaceuticalaan, Geel, Belgium). In addition, analytical-grade dimethyl sulfoxide (DMSO), used as a solvent in the bioassay, was purchased from DEAJUNG Chemical (Siheung, Gyeonggi, Korea). Reagents and solvents, including AChE from electric eel, acetylthiocholine iodide (ATCh), BChE from equine serum, S-butyrylthiocholine iodide (BTCh), 5,5′- dithiobis [2-nitrobenzoic acid] […] The BACE1 (β-secretase) FRET assay kit was purchased from Pan Vera Co. (Madison, WI, USA).
(§2) The inhibitory activities of the test samples against ChE (AChE and BChE) were evaluated using the spectrophotometric method developed in a previous study. ATCh and BTCh were used as substrates to measure the inhibitory activities of AChE and BChE, respectively. The assay mixture contained 0.1 M sodium phosphate buffer (pH 7.8), 0.3 U/mL AChE or BChE, 0.5 mM DTNB, 0.6 mM ATCh or BTCh, and the tested sample solution that were mixed and incubated for 15 min at room temperature. […] Reactions started on addition of 10 μL of DTNB and 10 μL of either ATCh or BTCh. The ChE inhibitory activity was monitored based on the formation of the yellow 5-thio-2-nitrobenzoate anion at 412 nm for 15 min that was due to the reaction of DTNB and thiocholine released from ATCh or BTCh. All reactions were measured in 96-well microplates and tested in triplicate. The percentage of inhibition (%) was estimated using the following formula: {(Ac − As)/Ac} × 100, where Ac is the enzyme activity without the test sample and As is the enzyme activity with the test sample.

[2] = target: T2, β-site amyloid precursor protein cleaving enzyme 1 (BACE1) (Homo sapiens, UniProt P56817); assay: BACE1 (β-secretase) FRET enzyme assay; type: biochemical; conditions: mean ± SD, n = 3
T2 construct: purchased Pan Vera Co. (Madison, WI, USA)
T2 sequence (P56817 22-501 limits assumed): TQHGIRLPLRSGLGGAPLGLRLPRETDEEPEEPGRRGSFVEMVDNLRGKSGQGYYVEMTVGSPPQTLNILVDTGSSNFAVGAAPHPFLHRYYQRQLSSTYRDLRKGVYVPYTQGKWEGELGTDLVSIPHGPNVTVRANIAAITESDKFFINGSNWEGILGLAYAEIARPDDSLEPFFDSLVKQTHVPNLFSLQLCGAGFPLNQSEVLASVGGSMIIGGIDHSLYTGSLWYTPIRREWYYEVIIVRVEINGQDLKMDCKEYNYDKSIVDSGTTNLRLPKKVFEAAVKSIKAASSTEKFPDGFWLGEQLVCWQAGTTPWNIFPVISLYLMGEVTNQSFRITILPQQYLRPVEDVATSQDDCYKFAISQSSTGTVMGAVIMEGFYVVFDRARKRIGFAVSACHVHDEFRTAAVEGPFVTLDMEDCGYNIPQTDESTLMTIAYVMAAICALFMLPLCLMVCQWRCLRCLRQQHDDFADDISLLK
Source text: as §1
The BACE1 enzyme assay was performed in accordance with the manufacturer’s recommended protocol, with minor modifications. Briefly, the assay mixture contained 1.0 U/mL of BACE1, 50 mM sodium acetate buffer (pH 4.5), the substrate (750 nM Rh-[…]-Quencher in 50 mM ammonium bicarbonate), and samples. […] The reaction mixture was incubated for 60 min at 25 °C in the dark. Prior to measurement, stop solution (2.5 M sodium acetate) was added to the assay mixture. […] All reactions were measured in black 96-well microplates and tested in triplicate. The percentage of inhibition (%) was obtained using the following formula: [1 − (S60 − S0)/(C60 − C0)] × 100, where C60 is the fluorescence of the control after 60 min of incubation, C0 is the initial fluorescence of the control, S60 is the fluorescence of the tested sample after 60 min of incubation, and S0 is the initial fluorescence of the tested sample. BACE1 inhibitory activity assay of each sample was presented in terms of IC50, as calculated from the log dose inhibition curve.

[3] = test system: formation of advanced glycation end-product (AGE); assay: Inhibition of formation of AGE (BSA with fructose and glucose, fluorescence); type: biochemical; conditions: mean ± SD, n = 3; for IC50: isolated compounds
Protocol: The inhibitory activity of the formation of AGE was measured with a spectrophotometric method developed previously, with slight modifications. Briefly, the assay mixture contained 50 mM phosphate buffer (pH 7.4) with 0.02% sodium azide, 0.4 M fructose and glucose, bovine serum albumin (10 mg/mL), and the sample. Next, the assay mixture was incubated at 60 °C for 2 days. After incubation, 200 μL of the reaction product was measured at excitation and emission wavelengths of 350 and 450 nm, respectively. All samples and positive control (aminoguanidine) were dissolved in 10% analytical-grade DMSO at five different final concentrations. All reactions were measured in black 96-well microplates and tested in triplicate. The percentage of inhibition (%) of the formation of AGE was estimated using the following formula: {(Ac − As)/Ac} × 100, where Ac is the fluorescence of the control and As is the fluorescence of the sample. Inhibition of the formation of AGE of each sample was presented in terms of IC50, as calculated from the log dose-inhibition curve.

[4] = target: T3, butyrylcholinesterase (BChE) (Equus caballus, UniProt P81908); assay: biochemical; conditions: isolated compounds, mean ± SD, n = 3
T3 construct: BChE from equine serum; purchased Sigma-Aldrich Co. (St. Louis, MO, USA); host or cells: equine serum
T3 sequence (P81908 whole entry): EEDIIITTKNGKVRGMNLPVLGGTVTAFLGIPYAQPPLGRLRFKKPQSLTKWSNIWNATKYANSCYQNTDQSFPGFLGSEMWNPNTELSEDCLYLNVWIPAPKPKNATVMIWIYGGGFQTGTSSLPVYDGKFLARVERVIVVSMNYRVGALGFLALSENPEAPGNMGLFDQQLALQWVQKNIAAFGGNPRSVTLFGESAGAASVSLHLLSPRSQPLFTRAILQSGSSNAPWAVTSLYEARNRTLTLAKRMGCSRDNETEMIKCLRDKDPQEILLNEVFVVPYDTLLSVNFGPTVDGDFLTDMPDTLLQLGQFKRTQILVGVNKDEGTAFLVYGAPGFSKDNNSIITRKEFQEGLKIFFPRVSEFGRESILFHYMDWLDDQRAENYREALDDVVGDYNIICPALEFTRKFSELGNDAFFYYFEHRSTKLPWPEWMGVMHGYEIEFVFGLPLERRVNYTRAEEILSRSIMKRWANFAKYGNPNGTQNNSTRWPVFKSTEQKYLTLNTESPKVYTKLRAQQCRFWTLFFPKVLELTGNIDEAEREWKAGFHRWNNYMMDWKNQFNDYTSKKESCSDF
Source text: as §1, §2

neuroinflammation = test system: neuroinflammation; set-up: method as in PMID 27623545; conditions: for the treatment of AD; cited from earlier work
[5] = isolated compounds, read-out: IC50 AChE
[6] = isolated compounds, read-out: IC50 BACE1

T1 sequence (O42275 24-633): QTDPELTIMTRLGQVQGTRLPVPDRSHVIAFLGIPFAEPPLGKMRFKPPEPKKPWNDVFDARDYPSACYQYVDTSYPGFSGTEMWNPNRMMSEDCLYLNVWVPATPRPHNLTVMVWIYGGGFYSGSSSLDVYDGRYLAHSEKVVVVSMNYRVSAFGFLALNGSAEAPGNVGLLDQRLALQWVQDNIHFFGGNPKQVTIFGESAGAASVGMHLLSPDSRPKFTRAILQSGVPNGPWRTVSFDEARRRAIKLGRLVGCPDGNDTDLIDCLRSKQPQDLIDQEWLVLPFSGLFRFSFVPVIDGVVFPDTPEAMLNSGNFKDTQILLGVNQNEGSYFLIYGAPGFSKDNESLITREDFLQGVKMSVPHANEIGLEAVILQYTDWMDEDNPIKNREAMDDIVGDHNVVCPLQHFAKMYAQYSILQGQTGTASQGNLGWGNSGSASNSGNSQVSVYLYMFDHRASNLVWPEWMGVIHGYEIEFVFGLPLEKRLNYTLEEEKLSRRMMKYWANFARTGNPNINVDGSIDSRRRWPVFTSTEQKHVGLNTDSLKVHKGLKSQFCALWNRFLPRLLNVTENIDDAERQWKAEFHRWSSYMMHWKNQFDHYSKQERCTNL

Question: With `CC(=O)OCC1=C[C@@H]2OC(=O)C3=CO[C@@H](O[C@@H]4O[C@H](CO)[C@@H](O)[C@H](O)[C@H]4O)[C@H]1[C@@H]32` [Compound 5, asperuloside] as the compound, how does the IC50 ([1]; IC50 AChE, isolated compounds) read?
Answer: The IC50 was 259 ± 7.48 µM.

Question: What about the IC50 ([2]; IC50 BACE1, isolated compounds) of the same compound?
Answer: The IC50 was > 500 µM.

Question: And the IC50 [3]?
Answer: The IC50 was > 1000 µM.

Question: And the IC50 ([4]; IC50 BChE)?
Answer: The IC50 was > 500 µM.

Question: Which results are given for `COC(=O)C1=CO[C@@H](O[C@@H]2O[C@H](CO)[C@@H](O)[C@H](O)[C@H]2O)[C@@H]2C(CO)=C[C@@H](OC)[C@H]12` [Compound 7, 6-O-Methylscandoside methyl ester]?
Answer: IC50 AChE ([1]; isolated compounds): did not inhibit AChE; IC50 ([2]; IC50 BACE1, isolated compounds): > 500 µM; IC50 ([4]; read-out: IC50 BChE): 11.6 ± 0.68 µM

Question: What does the source list for `COC(=O)C1=CO[C@@H](O[C@@H]2O[C@H](CO)[C@@H](O)[C@H](O)[C@H]2O)[C@@H]2C(CO)=C[C@H](OC)[C@H]12` [Compound 6, 6-O-Methyldeacetylasperulosidic acid methyl ester]?
Answer: IC50 [1, 5]: 81.1 ± 5.58 µM; IC50 ([2]; IC50 BACE1, isolated compounds): > 500 µM; IC50 ([4]; read-out: IC50 BChE): 32.2 ± 2.8 µM

Question: For `COC(=O)C1=CO[C@@H](O[C@@H]2O[C@H](CO)[C@@H](O)[C@H](O)[C@H]2O)[C@@H]2C(CO)=C[C@@H](O)[C@H]12` [Compound 8, scandoside methyl ester], which IC50 [1, 5] is on record?
Answer: Its IC50 is 158 ± 13.2 µM.

Question: What about the IC50 [2, 6] of the same compound?
Answer: Its IC50 is > 500 µM.

Question: And the IC50 ([4]; read-out: IC50 BChE)?
Answer: The IC50 was 16.2 ± 2.05 µM.

Question: Which results are given for `CC(=O)OCC1=C[C@H](O)[C@@H]2C(C(=O)O)=CO[C@@H](O[C@@H]3O[C@H](CO)[C@@H](O)[C@H](O)[C@H]3O)[C@H]12` [Compound 9, asperulosidic acid]?
Answer: IC50 ([1]; IC50 AChE, isolated compounds): 68.3 ± 5.11 µM; IC50 ([2]; IC50 BACE1, isolated compounds): > 500 µM; IC50 ([4]; IC50 BChE): 80.3 ± 19.8 µM

Question: For `COC(=O)C1=CO[C@@H](O[C@@H]2O[C@H](CO)[C@@H](O)[C@H](O)[C@H]2O)[C@@H]2C(CO)=C[C@H](O)[C@H]12` [Compound 4, deacetylasperulosidic acid methyl ester], which IC50 [1, 5] is on record?
Answer: Its IC50 is 172 ± 20.6 µM.

Question: And the IC50 [2, 6]?
Answer: The IC50 was > 500 µM.

Question: What about the IC50 ([4]; read-out: IC50 BChE) of the same compound?
Answer: Its IC50 is 17.6 ± 0.78 µM.

Question: For `N=C(N)NN` [AMG, aminoguanidine, reference compound], which “IC50 AGE Formation” value ([3]; extract and fractions) is on record?
Answer: Its value is 131.92 ± 11.24 µg/mL (≈ 1780 µM).

Question: For `COc1cc(/C=C/C(=O)OC[C@H]2O[C@@H](O[C@H]3[C@H](Oc4c(-c5ccc(O)c(O)c5)oc5cc(O)cc(O)c5c4=O)O[C@H](CO)[C@@H](O)[C@@H]3O)[C@H](O)[C@@H](O)[C@@H]2O)ccc1O` [Compound 10, quercetin-3-O-[2″-O-(6‴-O-E-feruloyl)-β-D-glucopyranosyl]-β-D-glucopyranoside], which IC50 [1, 5] is on record?
Answer: Its IC50 is 46.2 ± 1.59 µM.

Question: And the IC50 ([2]; IC50 BACE1, isolated compounds)?
Answer: Its IC50 is 4.49 ± 1.86 µM.

Question: And the IC50 [3]?
Answer: Its IC50 is 2.71 ± 0.06 µM.

Question: And the IC50 ([4]; read-out: IC50 BChE)?
Answer: Its IC50 is 13.8 ± 0.37 µM.

Question: With `COC(=O)C1=CO[C@@H](O[C@@H]2O[C@H](CO)[C@@H](O)[C@H](O)[C@H]2O)[C@@H]2C(CO)=C[C@@H](OC(=O)/C=C/c3ccc(O)cc3)[C@H]12` [Compound 1, E-6-O-p-coumaroyl scandoside methyl ester] as the compound, how does the IC50 [1, 5] read?
Answer: Its IC50 is 304 ± 12.2 µM.

Question: And the IC50 ([2]; IC50 BACE1, isolated compounds)?
Answer: The IC50 was 63.3 ± 4.56 µM.

Question: And the IC50 [3]?
Answer: Its IC50 is 105 ± 14.5 µM.

Question: Which neuroinflammation inhibitory activity (neuroinflammation) does the source give for `O=c1c(O[C@@H]2O[C@H](CO)[C@@H](O)[C@H](O)[C@H]2O[C@@H]2O[C@H](CO)[C@@H](O)[C@H](O)[C@H]2O)c(-c2ccc(O)c(O)c2)oc2cc(O)cc(O)c12` [compound β, quercetin-3-O-sophoroside] here?
Answer: The neuroinflammation inhibitory activity was “does not show effective neuroinflammation inhibitory activity”.

Question: For `COC(=O)C1=CO[C@@H](O[C@@H]2O[C@H](CO)[C@@H](O)[C@H](O)[C@H]2O)[C@@H]2C(CO)=C[C@@H](OC(=O)/C=C/c3ccc(O)c(OC)c3)[C@H]12` [Compound 3, E-6-O-feruloyl scandoside methyl ester], which IC50 [1, 5] is on record?
Answer: Its IC50 is 96.8 ± 5.29 µM.

Question: And the IC50 ([2]; IC50 BACE1, isolated compounds)?
Answer: The IC50 was 121 ± 11.9 µM.

Question: And the IC50 ([4]; read-out: IC50 BChE)?
Answer: Its IC50 is 116 ± 29.4 µM.

Question: Which results are given for `COC(=O)C1=CO[C@@H](O[C@@H]2O[C@H](CO)[C@@H](O)[C@H](O)[C@H]2O)[C@@H]2C(CO)=C[C@@H](OC(=O)/C=C/c3ccc(O)cc3)[C@H]12` [Compound 2, 6-O-p-coumaroyl scandoside methyl ester]?
Answer: IC50 [1, 5]: 298 ± 22.7 µM; IC50 ([2]; IC50 BACE1, isolated compounds): 121 ± 14.8 µM; IC50 [3]: 381 ± 42.7 µM

Question: Which IC50 ([1]; IC50 AChE, extract and fractions) does the source give for `COc1ccc2cc3[n+](cc2c1OC)CCc1cc2c(cc1-3)OCO2` [Berberine, berberine, reference compound] here?
Answer: The IC50 was 0.327 µM.

Question: And the IC50 ([1]; IC50 AChE, isolated compounds)?
Answer: Its IC50 is 0.31 ± 0.01 µM.
